Source: patent US8946238B2, “Pyrazolo[1,5-A]pyrimidines as antiviral agents” (Gilead Sciences, Inc., priority 2011, dated 2015)

Test system: RSV strain A2
Assay: RSV antiviral cytoprotection assay in Hep2 cells (RSV-induced cytopathic effect, Cell TiterGlo)
Type: cell-based, Respiratory Syncytial Virus (RSV)
Details: human respiratory syncytial virus, HEp-2, 0.5 μM compound; RSV A2-infected Hep2 cells; % inhibition calculated from 4-parameter dose response curve, normalized to 0% and 100%; read-out: Percent inhibition at 0.5 μM
Procedure: Antiviral activity against RSV was determined using an in vitro cytoprotection assay in Hep2 cells. […] The method used was similar to methods previously described in published literature (Chapman et al., Antimicrob Agents Chemother. 2007, 51(9):3346-53.)
Hep2 cells were obtained from ATCC (Manassas, VI) and maintained in MEM media supplemented with 10% fetal bovine serum and penicillin/streptomycin. Cells were passaged twice a week and kept at subconfluent stage. Commercial stock of RSV strain A2 (Advanced Biotechnologies, Columbia, Md.) was titered before compound testing to determine the appropriate dilution of the virus stock that generated desirable cytopathic effect in Hep2 cells.
For antiviral tests, Hep2 cells were seeded into 96-well plates 24 hours before the assay at a density of 3,000 cells/well. On a separate 96 well plate, compounds to be tested were serially diluted in cell culture media. Eight concentrations in 3-fold serial dilution increments were prepared for each tested compound and 100 uL/well of each dilution was transferred in duplicate onto plates with seeded Hep2 cells. Subsequently, appropriate dilution of virus stock previously determined by titration was prepared in cell culture media and 100 uL/well was added to test plates containing cells and serially diluted compounds. Each plate included three wells of infected untreated cells and three wells of uninfected cells that served as 0% and 100% virus inhibition control, respectively. Following the infection with RSV, testing plates were incubated for 4 days in a tissue culture incubator. After the incubation, RSV-induced cytopathic effect was determined using a Cell TiterGlo reagent (Promega, Madison, Wis.) followed by a luminescence read-out. The percentage inhibition was calculated for each tested concentration relative to the 0% and 100% inhibition controls and the EC50 value for each compound was determined by non-linear regression as a concentration inhibiting the RSV-induced cytopathic effect by 50%. Ribavirin (purchased from Sigma, St. Louis, Mo.) was used as a positive control for antiviral activity.
Compounds were also tested for antiviral activity against RSV in Hep2 cells using a 384 well format. Compounds were diluted in DMSO using a 10-step serial dilution in 3-fold increments via automation in 4 adjacent replicates each. Eight compounds were tested per dilution plate. 0.4 uL of diluted compounds were then stamped via Biomek into 384-well plates (Nunc 142761 or 164730 w/lid 264616) containing 20 μL of media (Mediatech Inc. MEM supplemented with Glutamine, 10% FBS and Pen/Strep). DMSO and a suitable positive control compound, such as 80 μM GS-329467 or 10 μM 427346 was used for the 100% and 0% cell killing controls, respectively.
Hep2 cells (1.0×10^5 cells/ml) were prepared as above in batch to at least 40 mls excess of the number of sample plates (8 mls cell mix per plate) and infected with vendor supplied (ABI) RSV strain A2 to arrive at an MOI of 1:1000 (virus:cell #) or 1:3000 (vol virus: cell vol). Immediately after addition of virus, the RSV infected Hep2 cell suspension was added to each stamped 384-well plate at 20 μl per well using a uFlow dispenser, giving a final volume of 40 μL/well, each with 2000 infected cells. The plates were then incubated for 5 days at 37° C. and 5% CO2. Following incubation, the plates were equilibrated to room temperature in a biosafety cabinet hood for 1.5 hrs and 40 μL of Cell-Titer Glo viability reagent (Promega) was added to each well via uFlow. Following a10-20 minute incubation, the plates were read using an EnVision or Victor Luminescence plate reader (Perkin-Elmer). The data was then uploaded and analyzed on the Bioinformatics portal under the RSV Cell Infectivity and 8-plate EC50-Hep2-384 or 8-plate EC50-Hep2-Envision protocols. […]

Row | Compound | inhibition at 0.5 µM [%]
1 | Cc1cn2nc([C@@H]3CCCCN3C(=O)c3cc(Cl)ccc3NS(C)(=O)=O)cc2nc1NCC(C)N (some centres unmarked) [Compound 1] | 100
2 | Cc1cn2nc([C@@H]3CCCCN3C(=O)c3cc(Cl)ccc3NS(C)(=O)=O)cc2nc1NCC1(N)CC1 [Compound 2] | 100
3 | Cc1cn2nc([C@@H]3CCCCN3C(=O)c3cc(Cl)ccc3NS(C)(=O)=O)cc2nc1NCC(N)c1ccccc1 (some centres unmarked) [Compound 3] | 100
4 | Cc1cn2nc([C@@H]3CCCCN3C(=O)c3cc(Cl)ccc3NS(C)(=O)=O)cc2nc1N1C[C@@H](N)[C@H](c2ccccc2)C1 [Compound 4] | 100
5 | Cc1cn2nc([C@@H]3CCCCN3C(=O)c3cc(Cl)ccc3NS(C)(=O)=O)cc2nc1NC(C)CN (some centres unmarked) [Compound 5] | 100
6 | Cc1cn2nc([C@@H]3CCCCN3C(=O)c3cc(Cl)ccc3NS(C)(=O)=O)cc2nc1N[C@H]1C[C@@H](N)C1 [Compound 6] | 100
7 | Cc1cn2nc([C@@H]3CCCCN3C(=O)c3cc(Cl)ccc3NS(C)(=O)=O)cc2nc1N1CCN[C@@H](C)C1 [Compound 7] | 100
8 | Cc1cn2nc([C@@H]3CCCCN3C(=O)c3cc(Cl)ccc3NS(C)(=O)=O)cc2nc1NC(CN)c1ccccc1 (some centres unmarked) [Compound 8] | 90
9 | COC(=O)[C@H]1C[C@H](N)CN1c1nc2cc([C@@H]3CCCCN3C(=O)c3cc(Cl)ccc3NS(C)(=O)=O)nn2cc1C [Compound 9] | 99
10 | CN[C@@H]1CCN(c2nc3cc([C@@H]4CCCCN4C(=O)c4cc(Cl)ccc4NS(C)(=O)=O)nn3cc2C)C1 [Compound 10] | 95
11 | CN[C@H]1CCN(c2nc3cc([C@@H]4CCCCN4C(=O)c4cc(Cl)ccc4NS(C)(=O)=O)nn3cc2C)C1 [Compound 11] | 92
12 | COC(=O)[C@H]1C[C@@H](N)CN1c1nc2cc([C@@H]3CCCCN3C(=O)c3cc(Cl)ccc3NS(C)(=O)=O)nn2cc1C [Compound 12] | 89
13 | Cc1cn2nc([C@@H]3CCCCN3C(=O)c3cc(Cl)ccc3NS(C)(=O)=O)cc2nc1N1CCN[C@@H](COCc2ccccc2)C1 [Compound 13] | 82
14 | Cc1cn2nc([C@@H]3CCCCN3C(=O)c3cc(Cl)ccc3NS(C)(=O)=O)cc2nc1N1C[C@H](N)C[C@@H]1C(=O)O [Compound 14] | 81
15 | Cc1cn2nc([C@@H]3CCCCN3C(=O)c3cc(Cl)ccc3NS(C)(=O)=O)cc2nc1NCC1CCCNC1 (some centres unmarked) [Compound 15] | 82
16 | Cc1cn2nc([C@@H]3CCCCN3C(=O)c3cc(Cl)ccc3NS(C)(=O)=O)cc2nc1N1C[C@@H]2CCN[C@@H]2C1 [Compound 16] | 71
17 | Cc1cn2nc([C@@H]3CCCCN3C(=O)c3cc(Cl)ccc3NS(C)(=O)=O)cc2nc1N1CCN[C@H](Cc2ccccc2)C1 [Compound 17] | 70
18 | Cc1cn2nc([C@@H]3CCCCN3C(=O)c3cc(Cl)ccc3NS(C)(=O)=O)cc2nc1N1C[C@@H]2C[C@H]1CN2 [Compound 18] | 70
19 | Cc1cn2nc([C@@H]3CCCCN3C(=O)c3cc(Cl)ccc3NS(C)(=O)=O)cc2nc1N1C[C@@H](N)C[C@@H]1C(=O)O [Compound 19] | 70
20 | Cc1cn2nc([C@@H]3CCCCN3C(=O)c3cc(Cl)ccc3NS(C)(=O)=O)cc2nc1N1CC(C)NC(C)C1 (some centres unmarked) [Compound 20] | 63
21 | Cc1cn2nc([C@@H]3CCCCN3C(=O)c3cc(Cl)ccc3NS(C)(=O)=O)cc2nc1N[C@H]1C[C@H]2C[C@@H]1CN2 [Compound 21] | 58
22 | Cc1cn2nc([C@@H]3CCCCN3C(=O)c3cc(Cl)ccc3NS(C)(=O)=O)cc2nc1N1CCN[C@@H](C(C)C)C1 [Compound 22] | 55
23 | CNC(=O)[C@H]1CN(c2nc3cc([C@@H]4CCCCN4C(=O)c4cc(Cl)ccc4NS(C)(=O)=O)nn3cc2C)CCN1 [Compound 23] | 48
24 | Cc1cn2nc([C@@H]3CCCCN3C(=O)c3cc(Cl)ccc3NS(C)(=O)=O)cc2nc1N1C[C@H](C)NC[C@H]1C [Compound 24] | 30

Row | Compound | inhibition at 0.5 µM [%]
25 | Cc1cn2nc([C@@H]3CCCCN3C(=O)c3cccc(F)c3C)cc2nc1N1CC[C@H](N)C1 [Compound 25] | 100
26 | Cc1cn2nc([C@@H]3CCCCN3C(=O)c3ccc(F)cn3)cc2nc1N1CC[C@H](N)C1 [Compound 26] | 84
27 | COc1ccccc1C(=O)N1CCCC[C@H]1c1cc2nc(N3CC[C@H](N)C3)c(C)cn2n1 [Compound 27] | 100
28 | Cc1cn2nc([C@@H]3CCCCN3C(=O)c3cc(F)c(F)c(Cl)c3F)cc2nc1N1CC[C@H](N)C1 [Compound 28] | 100
29 | COc1ccc(S(N)(=O)=O)cc1C(=O)N1CCCC[C@H]1c1cc2nc(N3CC[C@H](N)C3)c(C)cn2n1 [Compound 29] | 71
30 | Cc1cn2nc([C@@H]3CCCCN3C(=O)c3cccc(F)c3Cl)cc2nc1N1CC[C@H](N)C1 [Compound 30] | 100
31 | Cc1cn2nc([C@@H]3CCCCN3C(=O)c3cccc4c3CCCC4)cc2nc1N1CC[C@H](N)C1 [Compound 31] | 100
32 | Cc1cn2nc([C@@H]3CCCCN3C(=O)c3ccc(C#N)cc3F)cc2nc1N1CC[C@H](N)C1 [Compound 32] | 79
33 | Cc1cn2nc([C@@H]3CCCCN3C(=O)c3ccc(C)c(F)c3F)cc2nc1N1CC[C@H](N)C1 [Compound 33] | 99
34 | COc1ccc(C(C)(C)C)cc1C(=O)N1CCCC[C@H]1c1cc2nc(N3CC[C@H](N)C3)c(C)cn2n1 [Compound 34] | 13
35 | Cc1ccc(C(F)(F)F)c(C(=O)N2CCCC[C@H]2c2cc3nc(N4CC[C@H](N)C4)c(C)cn3n2)c1 [Compound 35] | 100
36 | Cc1ccc(C(=O)N2CCCC[C@H]2c2cc3nc(N4CC[C@H](N)C4)c(C)cn3n2)c(C(F)(F)F)c1 [Compound 36] | 98
37 | Cc1cn2nc([C@@H]3CCCCN3C(=O)c3cc(F)ccc3OC(F)(F)F)cc2nc1N1CC[C@H](N)C1 [Compound 37] | 100
38 | Cc1cn2nc([C@@H]3CCCCN3C(=O)c3cccc4cn[nH]c34)cc2nc1N1CC[C@H](N)C1 [Compound 38] | 100
39 | Cc1cn2nc([C@@H]3CCCCN3C(=O)c3c(F)ccc(C)c3F)cc2nc1N1CC[C@H](N)C1 [Compound 39] | 100
40 | Cc1cn2nc([C@@H]3CCCCN3C(=O)c3ccc4cnccc4n3)cc2nc1N1CC[C@H](N)C1 [Compound 41] | 4
41 | Cc1cn2nc([C@@H]3CCCCN3C(=O)c3ccc(-c4ccccc4)cn3)cc2nc1N1CC[C@H](N)C1 [Compound 42] | 9
42 | Cc1cn2nc([C@@H]3CCCCN3C(=O)c3cccc4[nH]cnc34)cc2nc1N1CC[C@H](N)C1 [Compound 43] | 88
43 | Cc1cn2nc([C@@H]3CCCCN3C(=O)c3cccc(F)c3C(F)(F)F)cc2nc1N1CC[C@H](N)C1 [Compound 44] | 100
44 | Cc1cn2nc([C@@H]3CCCCN3C(=O)c3ccccc3S(N)(=O)=O)cc2nc1N1CC[C@H](N)C1 [Compound 45] | 45
45 | Cc1cn2nc([C@@H]3CCCCN3C(=O)c3cccc4ccncc34)cc2nc1N1CC[C@H](N)C1 [Compound 46] | 100
46 | Cc1noc(-c2ccccc2C(=O)N2CCCC[C@H]2c2cc3nc(N4CC[C@H](N)C4)c(C)cn3n2)n1 [Compound 47] | 90
47 | Cc1cn2nc([C@@H]3CCCCN3C(=O)c3cc(F)cc4c3OCOC4)cc2nc1N1CC[C@H](N)C1 [Compound 48] | 100
